Data published in US4254124A, “Antidepressant agent” (priority 1979, dated 1981).

Key:
[1] = system: mouse; assay: reserpine-induced ptosis prevention (oral pretreatment); format: in vivo; settings: for ED50: Mus musculus, po, p.o. before reserpine 2.0 mg./kg. i.v., prevention in 50% of the animals
[2] = system: mouse; assay: spontaneous motor activity; format: in vivo
Source text: More particularly, in the measurement of spontaneous motor activity in the mouse using the device and method described by Kissel in U.S. Pat. No. 3,100,473 patented Aug.

[3] = system: dog; assay: carotid arterial blood pressure in pentobarbital anesthetized dog; format: in vivo; settings: 1 and 10 mg./kg. intravenously
[4] = system: alpha-adrenergic; assay: blood pressure response to 1-epinephrine (alpha-adrenergic blocking action), anesthetized dog; format: in vivo
[5] = system: mouse; assay: Mouse, tail clip (analgetic); format: in vivo; settings: oral
Source text: Mouse, tail clip (analgetic)^1
^1 Bianchi, et al., Brit. J. of Pharmacology 9, 280 (1954).

[6] = system: mouse; assay: Reduction of phenylquinone writhing in mice (analgetic); format: in vivo; settings: oral
Source text: Reduction of phenylquinone writhing
^2 Hendershot, et al., J. Pharmacol. & Exptl. Ther. 125, 237 (1959).

[7] = system: mouse; assay: Inhibition of pernicious preening in mice (anti-psychotic or analgetic); format: in vivo; settings: oral
Source text: mice (anti-psychotic or analgetic)^3

[8] = animal tests, antidepressant activity (general statement); format: in vivo
[9] = animal tests, propensity for adverse reactions (general statement); format: in vivo; settings: central nervous system depression, hypotensive action, and others; vs trazodone
Method: More particularly, in the measurement of spontaneous motor activity in the mouse using the device and method described by Kissel in U.S. Pat. No. 3,100,473 patented Aug. […] In contrast, trazodone at a dose of 15.3 mg./kg. caused a 30% reduction in spontaneous motor activity. […] Other animal test results in which MJ 12762 has been compared to trazodone are arranged in the following table.

[10] = in vivo; settings: mouse, po
Source text: (§1) ^4 Groups of 10 mice treated variously with geometrically increasing
(§2) doses of test compound with observations of lethal toxicity (ALD50)
(§3) and for first signs of pharmacologic activity (ATD50).

[11] = ALD50/ATD50 Mouse (lethal toxicity and first signs of pharmacologic activity); settings: mouse, in vivo, po
Source text: as §1, §2, §3

[12] = system: mouse; assay: as above
Source text: as §1, §2, §3

[13] = U.S. Pat. No. 3,381,009; cited from earlier work
[14] = system: patients; settings: cited from earlier work
[15] = vs imipramine, Fabre et al. 1979

Q: What does the source list for O=c1n(CCCN2CCN(c3cccc(C(F)(F)F)c3)CC2)nc2ccccn12 [MJ 12762, 2-[3-[4-[3-(Trifluoromethyl)phenyl]-1-piperazinyl]propyl]-1,2,4-triazolo[4,3-a]pyridin-3(2H)-one]?
A: ED50 [1]: 14 mg/kg; potency relative to trazodone, reserpine ptosis ([1]; p.o., vs trazodone): two to three times more potent than trazodone; effect on spontaneous motor activity ([2]; 20, 40 and 80 mg. per kg. orally): neither stimulation nor depression; effect on blood pressure [3]: without effect on blood pressure; effect on the blood pressure response to 1-epinephrine (alpha-adrenergic blocking action) ([4]; intravenous doses of 1 and 10 mg./kg.): lack of alpha-adrenergic blocking action; ED50 [5]: 94 mg/kg; ED50 [6]: 6.1 mg/kg; inhibition of pernicious preening, activity in words [7]: Inactive; inhibition of pernicious preening, animals responding ([7]; at 31 mg./kg.): 2 of 10; antidepressant activity relative to trazodone [8]: comparable in antidepressant activity to trazodone; propensity for adverse reactions [9]: significantly reduced propensity for adverse reactions; LD50 [10]: 250 to 500 mg/kg; TD50 [11]: 8 to 15.7 mg/kg; acute toxicity relative to trazodone ([12]; mouse): somewhat greater than that of trazodone; propensity for signs of overt pharmacologic activity unrelated to utility ([12]; vs trazodone): reduced as compared to trazodone

Q: For O=c1n(CCCN2CCN(c3cccc(Cl)c3)CC2)nc2ccccn12 [trazodone, 2-[3-[4-(3-chlorophenyl)-1-piperazinyl]propyl]-1,2,4-triazolo[4,3-a]pyridin-3(2H)-one, reference compound], which ED50 [1] is on record?
A: The ED50 was 36 mg/kg.

Q: And the “reduction in spontaneous motor activity” value ([2]; 15.3 mg./kg.)?
A: The value was 30%.

Q: What about the “effect on blood pressure” value [3] of the same compound?
A: The value was “depressor response”.

Q: And the “effect on the blood pressure response to 1-epinephrine bitartrate (alpha-adrenergic blocking action)” value ([4]; 10 mg./kg. intravenously)?
A: Its value is “blocked the effect of 1-epinephrine bitartrate”.

Q: What about the ED50 ([7]; Mus musculus) of the same compound?
A: The ED50 was 43 mg/kg.

Q: And the “pharmacological action in various animal tests” value [13]?
A: Its value is “tranquilizing action, hypotensive action, and analgesic action”.

Q: What about the “adverse reactions sometimes observed in patients” value ([14]; endogenous or neurotic depression) of the same compound?
A: The value was “hypotension,fatigue, drowsiness, and nasal or sinus congestion”.

Q: And the “antidepressant effectiveness in clinical use” value [14, 15]?
A: Its value is “equivalent in effectiveness to imipramine”.

Q: And the “side effects in clinical use” value [14, 15]?
A: Its value is “fewer side effects”.

Q: And the TD50 [11]?
A: The TD50 was 2 to 4 mg/kg.
